According to BindingDB's records for doi:10.1016/j.bmc.2006.01.067 (Johnson & Johnson Pharmaceutical, 2006):

The compounds below were run against T1, Integrin alpha-4/beta-7 (Homo sapiens, UniProt P13612+P26010) (assay: K562 Cell Adhesion Assay (alpha4beta7 Mediated Adhesion/MAdCAM-1)). Conditions: pH 7.4; 23 °C.
T1 sequence (P13612 whole entry): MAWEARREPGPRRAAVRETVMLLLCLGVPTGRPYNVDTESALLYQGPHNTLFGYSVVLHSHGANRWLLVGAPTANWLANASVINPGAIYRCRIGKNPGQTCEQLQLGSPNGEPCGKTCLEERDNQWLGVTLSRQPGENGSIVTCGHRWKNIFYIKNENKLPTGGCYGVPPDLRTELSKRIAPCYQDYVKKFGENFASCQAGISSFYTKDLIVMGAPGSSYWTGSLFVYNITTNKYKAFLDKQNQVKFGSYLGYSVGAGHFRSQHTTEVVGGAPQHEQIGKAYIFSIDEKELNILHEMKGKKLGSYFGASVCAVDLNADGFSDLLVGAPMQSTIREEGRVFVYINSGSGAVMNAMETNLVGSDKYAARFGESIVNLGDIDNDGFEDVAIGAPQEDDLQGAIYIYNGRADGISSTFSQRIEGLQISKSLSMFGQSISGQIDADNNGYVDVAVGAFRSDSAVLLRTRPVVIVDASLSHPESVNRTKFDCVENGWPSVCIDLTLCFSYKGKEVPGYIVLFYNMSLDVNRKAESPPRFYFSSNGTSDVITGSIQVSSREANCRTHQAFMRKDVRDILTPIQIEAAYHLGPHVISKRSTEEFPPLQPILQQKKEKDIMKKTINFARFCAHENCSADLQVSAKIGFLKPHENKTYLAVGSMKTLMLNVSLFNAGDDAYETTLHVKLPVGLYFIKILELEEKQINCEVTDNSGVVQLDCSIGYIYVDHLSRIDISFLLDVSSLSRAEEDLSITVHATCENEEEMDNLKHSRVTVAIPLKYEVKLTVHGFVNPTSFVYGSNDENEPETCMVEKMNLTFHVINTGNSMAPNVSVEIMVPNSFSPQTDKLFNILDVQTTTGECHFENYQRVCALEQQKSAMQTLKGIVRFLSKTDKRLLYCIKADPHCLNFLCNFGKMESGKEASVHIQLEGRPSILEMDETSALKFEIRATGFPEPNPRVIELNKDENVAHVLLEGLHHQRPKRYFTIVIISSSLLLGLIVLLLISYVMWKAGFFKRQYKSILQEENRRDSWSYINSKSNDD
T1 sequence (P26010 whole entry): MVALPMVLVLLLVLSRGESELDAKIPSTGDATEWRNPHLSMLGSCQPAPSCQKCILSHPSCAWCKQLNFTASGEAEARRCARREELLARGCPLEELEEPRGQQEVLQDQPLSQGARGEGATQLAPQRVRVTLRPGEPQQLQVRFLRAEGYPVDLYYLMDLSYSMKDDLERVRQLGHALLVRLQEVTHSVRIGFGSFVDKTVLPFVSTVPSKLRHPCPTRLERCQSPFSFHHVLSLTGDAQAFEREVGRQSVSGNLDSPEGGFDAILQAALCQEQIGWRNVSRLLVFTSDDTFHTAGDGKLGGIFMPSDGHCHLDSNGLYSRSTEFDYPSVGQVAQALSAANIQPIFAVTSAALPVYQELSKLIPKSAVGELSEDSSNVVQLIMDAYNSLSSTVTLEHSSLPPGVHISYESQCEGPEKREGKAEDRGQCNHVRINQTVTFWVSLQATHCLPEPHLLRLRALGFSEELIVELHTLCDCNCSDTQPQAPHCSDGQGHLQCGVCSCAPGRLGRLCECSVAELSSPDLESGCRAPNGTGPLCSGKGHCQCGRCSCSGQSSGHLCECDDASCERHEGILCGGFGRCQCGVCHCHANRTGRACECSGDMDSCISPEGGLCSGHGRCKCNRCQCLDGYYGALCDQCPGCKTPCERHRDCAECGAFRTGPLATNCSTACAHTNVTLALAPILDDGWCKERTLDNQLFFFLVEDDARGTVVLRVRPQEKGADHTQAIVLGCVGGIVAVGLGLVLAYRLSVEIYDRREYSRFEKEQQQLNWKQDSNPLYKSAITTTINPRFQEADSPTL
Experimental: M2 anti-FLAG antibody coated 96-well plates were coated with recombinant FLAG-hMAdCAM-1 contained in Dulbecco PBS. The compounds to be tested were added. Stably transfected K562 cells expressing human alpha4beta7 integrin that had been labeled with […] fluorescein diacetate succinimidyl ester (CFDA-SE) were added to each well and allowed to adhere for 1 h at room temperature. Plates were washed, and then cells were lysed. The plate was read on a 96-well fluorescent plate reader at 485 nm excitation and 530 nm emission.

| SMILES | IC50 |
| --- | --- |
| O=C(O)[C@H](Cc1ccc(N2C(=O)c3ccccc3C2=O)cc1)NC(=O)[C@@H]1C2CCC(CC2)N1S(=O)(=O)c1ccccc1 | 110 nM |
| O=C(Nc1ccc(C[C@H](NC(=O)[C@@H]2C3CCC(CC3)N2S(=O)(=O)c2ccccc2)C(=O)O)cc1)c1cc(Cl)nc(Cl)c1 [(2S)-2-{[(3S)-2-(benzenesulfonyl)-2-azabicyclo[2.2.2]octan-3-yl]formamido}-3-{4-[(2,6-dichloropyridine-4-)amido]phenyl}propanoic acid] | 46 nM |
| O=C(Nc1ccc(C[C@H](NC(=O)[C@@H]2C3CCC(CC3)N2S(=O)(=O)c2ccccc2)C(=O)O)cc1)c1ccncc1 [(2S)-2-{[(3S)-2-(benzenesulfonyl)-2-azabicyclo[2.2.2]octan-3-yl]formamido}-3-[4-(pyridine-4-amido)phenyl]propanoic acid] | 120 nM |
